pIC50: −log10 of the molar value.

A word on the pIC50: it is −log10 of the IC50, conventionally taken in molar units. High values mean a low IC50, low ones a high IC50.

T1 sequence (P13569 whole entry): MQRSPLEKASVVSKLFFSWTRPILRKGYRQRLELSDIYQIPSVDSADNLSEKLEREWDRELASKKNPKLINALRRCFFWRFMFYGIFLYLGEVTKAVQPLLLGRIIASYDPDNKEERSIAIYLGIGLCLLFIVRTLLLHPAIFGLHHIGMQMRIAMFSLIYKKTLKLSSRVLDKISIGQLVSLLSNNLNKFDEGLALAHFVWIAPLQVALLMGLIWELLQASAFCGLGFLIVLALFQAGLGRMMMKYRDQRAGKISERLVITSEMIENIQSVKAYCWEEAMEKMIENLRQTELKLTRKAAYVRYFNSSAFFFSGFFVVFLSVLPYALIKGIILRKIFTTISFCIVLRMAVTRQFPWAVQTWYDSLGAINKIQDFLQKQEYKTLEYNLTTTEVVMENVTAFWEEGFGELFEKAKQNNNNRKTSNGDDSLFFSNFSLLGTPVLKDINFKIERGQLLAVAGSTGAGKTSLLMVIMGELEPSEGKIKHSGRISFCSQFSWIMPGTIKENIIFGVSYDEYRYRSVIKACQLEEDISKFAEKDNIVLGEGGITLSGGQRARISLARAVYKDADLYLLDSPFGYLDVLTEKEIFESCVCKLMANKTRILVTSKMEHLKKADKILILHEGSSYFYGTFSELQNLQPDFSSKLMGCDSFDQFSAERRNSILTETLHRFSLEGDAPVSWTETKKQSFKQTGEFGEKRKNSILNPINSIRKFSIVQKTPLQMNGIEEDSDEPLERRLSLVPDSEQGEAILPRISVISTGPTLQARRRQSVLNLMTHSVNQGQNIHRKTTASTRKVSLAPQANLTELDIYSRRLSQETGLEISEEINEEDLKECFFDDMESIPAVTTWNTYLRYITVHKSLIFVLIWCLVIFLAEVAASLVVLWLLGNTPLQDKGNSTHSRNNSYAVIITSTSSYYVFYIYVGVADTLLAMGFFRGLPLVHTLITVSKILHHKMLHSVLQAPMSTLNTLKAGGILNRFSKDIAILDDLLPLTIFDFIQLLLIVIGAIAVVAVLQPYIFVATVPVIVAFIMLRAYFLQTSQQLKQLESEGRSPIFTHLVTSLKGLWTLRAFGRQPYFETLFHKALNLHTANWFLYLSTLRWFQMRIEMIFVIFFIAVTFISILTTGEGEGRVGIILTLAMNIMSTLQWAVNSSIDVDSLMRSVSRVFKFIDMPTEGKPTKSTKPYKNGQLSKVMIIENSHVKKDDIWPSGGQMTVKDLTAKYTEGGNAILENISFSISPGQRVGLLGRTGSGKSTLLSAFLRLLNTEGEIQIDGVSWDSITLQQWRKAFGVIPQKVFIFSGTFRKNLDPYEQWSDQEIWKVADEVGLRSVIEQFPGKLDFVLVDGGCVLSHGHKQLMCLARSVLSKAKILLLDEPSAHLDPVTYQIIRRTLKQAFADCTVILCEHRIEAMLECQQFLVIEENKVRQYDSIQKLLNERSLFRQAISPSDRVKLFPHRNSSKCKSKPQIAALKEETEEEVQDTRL

The experiment addresses T1, CFTR (Homo sapiens, UniProt P13569).
T1 construct: host or cells: Human colonic T84 cells
As to the kind of experiment: T84 assay (FLIPR membrane potential, forskolin/IBMX-stimulated CFTR channel activity). It counts as cell-based. To be noted: Human colonic T84 cells; average of at least 2 runs unless annotated n = 1. Here is the method: (§1) For example, Human colonic T84 cells can be acquired from the European Collection of Cell Cultures (ECACC) and grown in standard culture conditions as described by the supplier. On the day before assay 25,000 T84 cells per well are plated into standard black walled, clear bottom 384-well assay plates in standard growth medium consisting of DMEM:F12 with 10% FBS and incubated overnight. On the day of the assay the plates are washed using a standard assay buffer (HBSS with 10 mM Hepes) and incubated for 15 minutes in serum free cell culture medium before the addition of a commercially available membrane potential sensitive fluorescent dye (FLIPR Red membrane potential dye, Molecular Devices Corporation). T84 cells are incubated with the FLIPR Red membrane potential dye for 45 minutes in the presence and absence of test compound before being transferred to a commercially available fluorescence imaging plate reader (FLIPR384, Molecular Devices Corporation). Fluorescence levels are monitored continuously every second for 150 seconds; after an initial 10 second baseline, CFTR channel activity is stimulated through the addition of 10 μM forskolin in the presence of 100 μM of the phosphodiesterase inhibitor iso-butyl-methylxanthine (IBMX). Addition of the forskolin leads to the activation of intracellular adenylyl cylase 1, elevating cAMP levels and results in the phosphorylation and opening of CFTR anion channels. CFTR channel opening causes chloride ion efflux and subsequent depolarization of the cells, which is measured by an increase in fluorescence. CFTR inhibitor compounds prevent cell depolarization and the associated increase in fluorescence.
as §1, with “Human colonic” for “For example, Human colonic”, “T84 cells are acquired from” for “T84 cells can be acquired from”, “(ECACC) and are grown in” for “(ECACC) and grown in”
Regarding `O=C(c1cc(-c2cc(Cl)c(O)c(Cl)c2)nnc1OCCc1ccc(Cl)cc1)N(CCO)Cc1cccnc1` [Compound 24, 3-(4-chlorophenethoxy)-6-(3,5-dichloro-4-hydroxyphenyl)-N-(2-hydroxyethyl)-N-(pyridin-3-ylmethyl)pyridazine-4-carboxamide], the pIC50 was 4.71.

As for `CN(C)CCCOc1ccc(CN2CCN(c3cc(-c4cc(Cl)c(O)c(Cl)c4)nnc3OCCc3ccc(Cl)cc3)CC2)cc1` [Compound 2, 2,6-Dichloro-4-(6-(4-chlorophenethoxy)-5-(4-(4-(3-(dimethylamino)propoxy)benzyl)piperazin-1-yl)pyridazin-3-yl)phenol], the pIC50 is 5.74.

Take `O=C(c1cc(-c2cc(Cl)c(O)c(Cl)c2)nnc1OCCc1ccc(Cl)cc1)N(CCO)Cc1ccccn1` [Compound 25, 3-(4-chlorophenethoxy)-6-(3,5-dichloro-4-hydroxyphenyl)-N-(2-hydroxyethyl)-N-(pyridin-2-ylmethyl)pyridazine-4-carboxamide]: the pIC50 was 4.83.

`NC(=O)C1CCN(CCCOc2ccc(CN3CCN(c4cc(-c5cc(Cl)c(O)c(Cl)c5)nnc4OCCc4ccc(Cl)cc4)CC3)cc2)CC1` [Compound 21, 1-(3-(4-((4-(3-(4-chlorophenethoxy)-6-(3,5-dichloro-4-hydroxyphenyl)pyridazin-4-yl)piperazin-1-yl)methyl)phenoxy)propyl)piperidine-4-carboxamide] gave a pIC50 of 5.13.

`O=C(Cc1ccccn1)N1CCN(c2cc(-c3cc(Cl)c(O)c(Cl)c3)nnc2OCCc2ccc(Cl)cc2)CC1` [Compound 3, 1-(4-(3-(4-Chlorophenethoxy)-6-(3,5-dichloro-4-hydroxyphenyl)pyridazin-4-yl)piperazin-1-yl)-2-(pyridin-2-yl)ethanone] showed a pIC50 of 4.74.

As for `CS(=O)(=O)Nc1ccc(CNC(=O)c2cc(-c3cc(Cl)c(O)c(Cl)c3)nnc2OCCc2ccc(Cl)cc2)cc1` [Compound 4, 3-(4-Chlorophenethoxy)-6-(3,5-dichloro-4-hydroxyphenyl)-N-(4-(methylsulfonamido)benzyl)pyridazine-4-carboxamide], the pIC50 was 4.76.

On to `O=C(c1cc(-c2cc(Cl)c(O)c(Cl)c2)nnc1OCCc1ccc(Cl)cc1)N(CCO)Cc1ccc(F)cc1` [Compound 10, 3-(4-chlorophenethoxy)-6-(3,5-dichloro-4-hydroxyphenyl)-N-(4-fluorobenzyl)-N-(2-hydroxyethyl)pyridazine-4-carboxamide], for which the pIC50 is 4.92.

As for `O=C(c1cc(-c2cc(Cl)c(O)c(Cl)c2)nnc1OCCc1ccc(Cl)cc1)N(CCO)Cc1ccc2c(c1)OCO2` [Compound 32, N-(benzo[d][1,3]dioxol-5-ylmethyl)-3-(4-chlorophenethoxy)-6-(3,5-dichloro-4-hydroxyphenyl)-N-(2-hydroxyethyl)pyridazine-4-carboxamide], the pIC50 is 4.79.

`O=C(NCc1cc(F)c(F)c(F)c1)c1cc(-c2cc(Cl)c(O)c(Cl)c2)nnc1OCCc1ccc(Cl)cc1` [Compound 9, 3-(4-chlorophenethoxy)-6-(3,5-dichloro-4-hydroxyphenyl)-N-(3,4,5-trifluorobenzyl)pyridazine-4-carboxamide] showed a pIC50 of 5.09.

In turn, `CC(C)(C)c1ccc(CNC(=O)c2cc(-c3cc(Cl)c(O)c(Cl)c3)nnc2OCCc2ccc(Cl)cc2)cc1` [Compound 34, N-(4-tert-butylbenzyl)-3-(4-chlorophenethoxy)-6-(3,5-dichloro-4-hydroxyphenyl)pyridazine-4-carboxamide] showed a negative logarithm of the IC50 (pIC50) of 4.70. This pIC50 is 0.39 log units lower than that of the compound before.

`CN(C)CCCOc1cccc(CN2CCN(c3cc(-c4cc(Cl)c(O)c(Cl)c4)nnc3OCCc3ccc(Cl)cc3)CC2)c1` [Compound 16, 2,6-dichloro-4-(6-(4-chlorophenethoxy)-5-(4-(3-(3-(dimethylamino)propoxy)benzyl)piperazin-1-yl)pyridazin-3-yl)phenol] had a pIC50 of 5.01.

The compound `CCN1CCN(c2cc(-c3cc(Cl)c(O)c(Cl)c3)nnc2OCCc2ccc(Cl)cc2)CC1` [Compound 5, 2,6-dichloro-4-(6-(4-chlorophenethoxy)-5-(4-ethylpiperazin-1-yl)pyridazin-3-yl)phenol] had a pIC50 of 4.80.

On to `Oc1c(Cl)cc(-c2cc(N3CCN(Cc4ccc(OCCCN5CCC(F)(F)CC5)cc4)CC3)c(OCCc3ccc(Cl)cc3)nn2)cc1Cl` [Compound 18, 2,6-dichloro-4-(6-(4-chlorophenethoxy)-5-(4-(4-(3-(4,4-difluoropiperidin-1-yl)propoxy)benzyl)piperazin-1-yl)pyridazin-3-yl)phenol], for which the pIC50 was 5.12.

For `Oc1c(Cl)cc(-c2cc(N3CCN(Cc4ccc(OCCCN5CCSCC5)cc4)CC3)c(OCCc3ccc(Cl)cc3)nn2)cc1Cl` [Compound 19, 2,6-dichloro-4-(6-(4-chlorophenethoxy)-5-(4-(4-(3-thiomorpholinopropoxy)benzyl)piperazin-1-yl)pyridazin-3-yl)phenol], the pIC50 is 4.77.

As to `CN1CCN(CCOc2ccc(CN3CCN(c4cc(-c5cc(Cl)c(O)c(Cl)c5)nnc4OCCc4ccc(Cl)cc4)CC3)cc2)CC1` [Compound 22, 2,6-dichloro-4-(6-(4-chlorophenethoxy)-5-(4-(4-(2-(4-methylpiperazin-1-yl)ethoxy)benzyl)piperazin-1-yl)pyridazin-3-yl)phenol], the pIC50 is 4.88.

The compound `CN(C)CCOc1ccc(CN2CCN(c3cc(-c4cc(Cl)c(O)c(Cl)c4)nnc3OCCc3ccc(Cl)cc3)CC2)cc1` [Compound 15, 2,6-dichloro-4-(6-(4-chlorophenethoxy)-5-(4-(4-(2-(dimethylamino)ethoxy)benzyl)piperazin-1-yl)pyridazin-3-yl)phenol] showed a pIC50 of 5.52.

With `CN(C)CCCOc1ccccc1CN1CCN(c2cc(-c3cc(Cl)c(O)c(Cl)c3)nnc2OCCc2ccc(Cl)cc2)CC1` [Compound 17, 2,6-dichloro-4-(6-(4-chlorophenethoxy)-5-(4-(2-(3-(dimethylamino)propoxy)benzyl)piperazin-1-yl)pyridazin-3-yl)phenol], the pIC50 is 5.42.

Turning to `O=C(c1cc(-c2cc(Cl)c(O)c(Cl)c2)nnc1OCCc1ccc(Cl)cc1)N(CCO)Cc1ccccc1Cl` [Compound 12, N-(2-chlorobenzyl)-3-(4-chlorophenethoxy)-6-(3,5-dichloro-4-hydroxyphenyl)-N-(2-hydroxyethyl)pyridazine-4-carboxamide], the pIC50 is 4.99.

Turning to `COc1ccc(CN(CCO)C(=O)c2cc(-c3cc(Cl)c(O)c(Cl)c3)nnc2OCCc2ccc(Cl)cc2)cc1OC` [Compound 33, 3-(4-chlorophenethoxy)-6-(3,5-dichloro-4-hydroxyphenyl)-N-(3,4-dimethoxybenzyl)-N-(2-hydroxyethyl)pyridazine-4-carboxamide], the pIC50 is 4.86.

In the case of `CCCN(CCO)C(=O)c1cc(-c2cc(Cl)c(O)c(Cl)c2)nnc1OCCc1ccc(Cl)cc1` [Compound 13, 3-(4-chlorophenethoxy)-6-(3,5-dichloro-4-hydroxyphenyl)-N-(2-hydroxyethyl)-N-propylpyridazine-4-carboxamide], the pIC50 is 4.54.

As to `O=C(NCc1ccc(C(F)(F)F)cc1)c1cc(-c2cc(Cl)c(O)c(Cl)c2)nnc1OCCc1ccc(Cl)cc1` [Compound 7, 3-(4-chlorophenethoxy)-6-(3,5-dichloro-4-hydroxyphenyl)-N-(4-(trifluoromethyl)benzyl)pyridazine-4-carboxamide], the pIC50 was 4.78.

Compound `Oc1c(Cl)cc(-c2cc(N3CCN(Cc4ccc(OCCN5CCOCC5)cc4)CC3)c(OCCc3ccc(Cl)cc3)nn2)cc1Cl` [Compound 14, 2,6-dichloro-4-(6-(4-chlorophenethoxy)-5-(4-(4-(2-morpholinoethoxy)benzyl)piperazin-1-yl)pyridazin-3-yl)phenol] showed a pIC50 of 5.02.

Regarding `COc1cc(CN2CCN(c3cc(-c4cc(Cl)c(O)c(Cl)c4)nnc3OCCc3ccc(Cl)cc3)CC2)ccc1OCCN1CCN(C)CC1` [Compound 23, 2,6-dichloro-4-(6-(4-chlorophenethoxy)-5-(4-(3-methoxy-4-(2-(4-methylpiperazin-1-yl)ethoxy)benzyl)piperazin-1-yl)pyridazin-3-yl)phenol], the negative-log IC50 (pIC50) is 5.63.

As for `CCN(Cc1ccccc1)C(=O)c1cc(-c2cc(Cl)c(O)c(Cl)c2)nnc1OCCc1ccc(Cl)cc1` [Compound 27, N-benzyl-3-(4-chlorophenethoxy)-6-(3,5-dichloro-4-hydroxyphenyl)-N-ethylpyridazine-4-carboxamide], the pIC50 was 4.77. This pIC50 lies 0.86 log units lower than the previous one.

The values are drawn from patent US20100267706A1, “Compounds, Compositions and Methods Comprising Pyridazine Derivatives” (Institute for OneWorld Health, priority 2009, published 2010).
